# Source: ChEMBL document CHEMBL5550200, “Back-Pocket Optimization of 2-Aminopyrimidine-Based Macrocycles Leads to Potent EPHA2/GAK Kinase Inhibitors” (J Med Chem, 2024)
# How the values were obtained:
# [1] = biological target: Fibroblast growth factor receptor 1 (Homo sapiens, UniProt P11362)
# Description: Induction of stabilization of recombinant FGFR1 (unknown origin) assessed as change in melting temperature by differential scanning fluorimetry assay
# [2] = biological target: T1, Ephrin type-B receptor 3 (Homo sapiens) (UniProt P54753); test: Induction of stabilization of recombinant EPHB3 (unknown origin) assessed as change in melting temperature by differential scanning fluorimetry assay
# T1 sequence (whole entry): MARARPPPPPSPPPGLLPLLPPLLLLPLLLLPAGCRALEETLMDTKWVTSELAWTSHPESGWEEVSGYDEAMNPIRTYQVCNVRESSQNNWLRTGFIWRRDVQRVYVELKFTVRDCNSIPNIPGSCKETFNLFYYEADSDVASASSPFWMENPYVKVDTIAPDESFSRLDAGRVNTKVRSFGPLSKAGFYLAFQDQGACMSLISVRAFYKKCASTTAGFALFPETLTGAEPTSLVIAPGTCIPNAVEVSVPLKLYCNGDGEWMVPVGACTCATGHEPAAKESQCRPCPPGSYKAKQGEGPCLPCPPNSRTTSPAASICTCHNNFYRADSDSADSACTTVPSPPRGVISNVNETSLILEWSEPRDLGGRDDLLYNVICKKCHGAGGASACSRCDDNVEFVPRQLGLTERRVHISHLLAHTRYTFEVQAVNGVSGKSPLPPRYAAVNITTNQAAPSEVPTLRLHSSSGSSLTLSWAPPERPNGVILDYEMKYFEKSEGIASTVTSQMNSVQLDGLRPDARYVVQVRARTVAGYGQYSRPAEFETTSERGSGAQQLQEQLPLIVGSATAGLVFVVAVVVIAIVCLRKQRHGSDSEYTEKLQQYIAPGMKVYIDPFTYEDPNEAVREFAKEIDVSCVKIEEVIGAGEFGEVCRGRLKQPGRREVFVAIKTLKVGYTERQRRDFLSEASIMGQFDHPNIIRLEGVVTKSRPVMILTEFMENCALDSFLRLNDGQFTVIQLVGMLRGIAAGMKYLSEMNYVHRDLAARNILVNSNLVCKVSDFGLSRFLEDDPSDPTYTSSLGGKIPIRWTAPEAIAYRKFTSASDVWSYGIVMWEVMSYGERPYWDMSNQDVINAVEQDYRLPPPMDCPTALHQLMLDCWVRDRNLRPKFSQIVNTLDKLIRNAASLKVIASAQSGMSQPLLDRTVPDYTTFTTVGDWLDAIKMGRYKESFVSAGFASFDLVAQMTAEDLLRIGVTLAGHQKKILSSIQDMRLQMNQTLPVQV
# [3] = biological target: T2, Cyclin-G-associated kinase (Homo sapiens) (UniProt O14976)
# T2 sequence (whole entry): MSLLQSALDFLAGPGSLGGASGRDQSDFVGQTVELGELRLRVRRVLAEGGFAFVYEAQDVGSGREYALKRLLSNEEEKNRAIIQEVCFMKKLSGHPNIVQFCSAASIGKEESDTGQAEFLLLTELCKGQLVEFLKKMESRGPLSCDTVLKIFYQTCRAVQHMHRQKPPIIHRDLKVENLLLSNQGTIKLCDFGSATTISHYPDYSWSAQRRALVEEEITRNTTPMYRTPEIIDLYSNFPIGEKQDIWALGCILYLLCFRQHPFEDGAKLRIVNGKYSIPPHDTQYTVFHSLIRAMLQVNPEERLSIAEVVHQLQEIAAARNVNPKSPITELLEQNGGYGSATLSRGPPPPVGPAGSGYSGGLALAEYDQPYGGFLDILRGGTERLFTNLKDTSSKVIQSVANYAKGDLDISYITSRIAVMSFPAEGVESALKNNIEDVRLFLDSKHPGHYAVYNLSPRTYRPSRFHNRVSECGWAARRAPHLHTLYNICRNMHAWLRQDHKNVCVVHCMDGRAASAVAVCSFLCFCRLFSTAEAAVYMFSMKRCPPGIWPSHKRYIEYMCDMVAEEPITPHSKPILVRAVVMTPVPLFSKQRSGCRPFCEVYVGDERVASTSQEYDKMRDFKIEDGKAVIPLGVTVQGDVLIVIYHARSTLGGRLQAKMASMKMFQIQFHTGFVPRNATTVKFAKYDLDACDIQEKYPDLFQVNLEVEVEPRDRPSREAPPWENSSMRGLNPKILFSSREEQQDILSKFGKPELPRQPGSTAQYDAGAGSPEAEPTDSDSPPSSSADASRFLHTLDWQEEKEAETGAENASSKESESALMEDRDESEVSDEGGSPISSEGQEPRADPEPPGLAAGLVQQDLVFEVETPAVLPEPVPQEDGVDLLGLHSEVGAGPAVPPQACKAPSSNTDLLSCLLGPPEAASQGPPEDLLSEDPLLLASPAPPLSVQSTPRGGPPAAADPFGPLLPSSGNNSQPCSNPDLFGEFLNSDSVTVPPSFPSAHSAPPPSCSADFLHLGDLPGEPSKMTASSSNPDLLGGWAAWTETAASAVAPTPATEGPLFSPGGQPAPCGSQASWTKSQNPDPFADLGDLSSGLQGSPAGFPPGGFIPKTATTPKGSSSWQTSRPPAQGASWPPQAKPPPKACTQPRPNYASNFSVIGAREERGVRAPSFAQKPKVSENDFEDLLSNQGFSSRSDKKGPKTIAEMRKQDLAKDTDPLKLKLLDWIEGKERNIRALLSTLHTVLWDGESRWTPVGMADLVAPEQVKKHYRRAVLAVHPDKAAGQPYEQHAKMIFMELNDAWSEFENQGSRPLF
# Description: Induction of stabilization of recombinant GAK (unknown origin) assessed as change in melting temperature by differential scanning fluorimetry assay
# [4] = biological target: Fibroblast growth factor receptor 2 (Homo sapiens) (UniProt P21802)
# Sequence of Fibroblast growth factor receptor 2 (Homo sapiens) (P21802 22-821 limits assumed): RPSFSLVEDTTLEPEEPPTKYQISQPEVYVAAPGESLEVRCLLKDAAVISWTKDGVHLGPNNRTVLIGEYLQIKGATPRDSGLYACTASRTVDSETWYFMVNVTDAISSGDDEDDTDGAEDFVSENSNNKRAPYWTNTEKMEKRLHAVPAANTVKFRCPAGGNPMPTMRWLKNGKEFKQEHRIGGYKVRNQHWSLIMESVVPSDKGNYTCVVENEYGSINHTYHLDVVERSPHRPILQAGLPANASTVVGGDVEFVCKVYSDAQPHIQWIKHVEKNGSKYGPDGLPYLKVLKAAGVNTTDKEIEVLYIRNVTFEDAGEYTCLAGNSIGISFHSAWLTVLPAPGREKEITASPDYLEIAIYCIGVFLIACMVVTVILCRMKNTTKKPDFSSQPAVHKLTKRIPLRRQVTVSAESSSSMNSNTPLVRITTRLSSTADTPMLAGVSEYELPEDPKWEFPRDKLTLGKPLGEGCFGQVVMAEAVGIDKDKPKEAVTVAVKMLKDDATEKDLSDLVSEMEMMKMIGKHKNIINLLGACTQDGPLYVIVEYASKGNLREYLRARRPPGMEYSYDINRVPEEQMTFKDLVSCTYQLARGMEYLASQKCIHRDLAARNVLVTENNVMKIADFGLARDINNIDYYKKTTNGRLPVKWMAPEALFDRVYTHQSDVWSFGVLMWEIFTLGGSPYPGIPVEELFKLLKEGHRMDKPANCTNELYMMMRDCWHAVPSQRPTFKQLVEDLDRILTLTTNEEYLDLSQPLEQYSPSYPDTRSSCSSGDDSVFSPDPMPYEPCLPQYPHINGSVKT
# Description: Induction of stabilization of recombinant FGFR2 (unknown origin) assessed as change in melting temperature by differential scanning fluorimetry assay
# Ephrin type-A receptor 2 = Ephrin type-A receptor 2 (Homo sapiens, UniProt P29317)
# Sequence of Ephrin type-A receptor 2 (P29317 whole entry): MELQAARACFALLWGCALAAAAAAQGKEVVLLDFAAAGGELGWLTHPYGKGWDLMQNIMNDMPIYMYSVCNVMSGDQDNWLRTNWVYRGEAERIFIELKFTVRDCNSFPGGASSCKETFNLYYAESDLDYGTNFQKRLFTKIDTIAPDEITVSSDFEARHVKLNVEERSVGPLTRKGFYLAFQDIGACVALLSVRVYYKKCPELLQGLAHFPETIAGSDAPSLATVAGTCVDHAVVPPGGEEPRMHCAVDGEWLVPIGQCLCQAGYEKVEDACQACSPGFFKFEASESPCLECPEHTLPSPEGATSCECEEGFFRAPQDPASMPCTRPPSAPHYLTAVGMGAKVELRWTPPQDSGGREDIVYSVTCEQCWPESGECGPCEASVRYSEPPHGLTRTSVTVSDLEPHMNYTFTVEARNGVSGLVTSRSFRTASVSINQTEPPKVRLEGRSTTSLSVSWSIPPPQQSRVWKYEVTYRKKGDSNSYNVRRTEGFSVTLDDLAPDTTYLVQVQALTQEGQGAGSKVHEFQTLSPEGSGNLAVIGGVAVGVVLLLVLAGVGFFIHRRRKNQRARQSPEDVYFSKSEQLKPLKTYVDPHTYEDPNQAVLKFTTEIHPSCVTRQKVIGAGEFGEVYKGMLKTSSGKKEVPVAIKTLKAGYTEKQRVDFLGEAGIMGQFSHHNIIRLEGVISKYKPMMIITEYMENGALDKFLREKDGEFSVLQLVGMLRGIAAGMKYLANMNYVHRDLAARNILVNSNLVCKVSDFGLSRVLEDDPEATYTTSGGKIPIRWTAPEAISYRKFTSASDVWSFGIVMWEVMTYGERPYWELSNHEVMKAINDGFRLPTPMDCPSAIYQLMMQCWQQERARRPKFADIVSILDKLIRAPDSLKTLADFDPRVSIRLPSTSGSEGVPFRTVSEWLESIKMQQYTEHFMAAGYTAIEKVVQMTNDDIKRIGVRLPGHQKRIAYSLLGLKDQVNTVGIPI
# Description: Induction of stabilization of recombinant EPHA2 (D596 to G900 residues) (unknown origin) expressed in Escherichia coli rosetta BL21(D3)-R3-pRARE2 competent cells assessed as change in melting temperature by differential scanning fluorimetry assay
# [5] = biological target: Ephrin type-A receptor 5 (Homo sapiens) (UniProt P54756)
# Description: Induction of stabilization of recombinant EPHA5 (unknown origin) assessed as change in melting temperature by differential scanning fluorimetry assay
# [6] = biological target: T3, Ephrin type-B receptor 1 (Homo sapiens) (UniProt P54762); test: Induction of stabilization of recombinant EPHB1 (unknown origin) assessed as change in melting temperature by differential scanning fluorimetry assay
# T3 sequence (whole entry): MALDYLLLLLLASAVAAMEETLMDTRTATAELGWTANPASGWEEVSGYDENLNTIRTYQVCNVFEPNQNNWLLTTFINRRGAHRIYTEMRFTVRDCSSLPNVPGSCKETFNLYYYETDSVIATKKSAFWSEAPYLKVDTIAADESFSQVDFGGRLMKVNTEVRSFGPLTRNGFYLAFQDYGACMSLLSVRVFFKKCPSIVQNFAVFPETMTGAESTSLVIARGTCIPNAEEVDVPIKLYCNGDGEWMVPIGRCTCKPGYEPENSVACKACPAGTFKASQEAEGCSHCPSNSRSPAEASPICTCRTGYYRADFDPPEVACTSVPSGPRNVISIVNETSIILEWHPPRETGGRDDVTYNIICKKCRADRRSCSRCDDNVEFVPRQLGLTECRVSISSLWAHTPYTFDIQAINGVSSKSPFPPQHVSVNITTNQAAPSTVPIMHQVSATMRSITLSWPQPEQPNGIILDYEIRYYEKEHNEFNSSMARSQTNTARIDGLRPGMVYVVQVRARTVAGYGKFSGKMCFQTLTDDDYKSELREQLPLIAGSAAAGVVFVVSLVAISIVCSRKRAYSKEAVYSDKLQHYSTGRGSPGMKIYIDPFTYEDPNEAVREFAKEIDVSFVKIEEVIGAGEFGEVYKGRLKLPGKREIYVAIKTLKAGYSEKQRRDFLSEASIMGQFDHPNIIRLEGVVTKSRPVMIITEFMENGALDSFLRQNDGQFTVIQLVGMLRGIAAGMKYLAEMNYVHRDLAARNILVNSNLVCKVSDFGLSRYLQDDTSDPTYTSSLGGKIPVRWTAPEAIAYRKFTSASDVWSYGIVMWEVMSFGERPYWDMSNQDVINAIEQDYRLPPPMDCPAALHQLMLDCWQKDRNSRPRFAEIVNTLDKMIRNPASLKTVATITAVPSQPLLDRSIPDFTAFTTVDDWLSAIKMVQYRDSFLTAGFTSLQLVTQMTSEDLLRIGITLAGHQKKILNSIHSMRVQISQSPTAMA
# Ephrin type-A receptor 4 = Ephrin type-A receptor 4 (Homo sapiens, UniProt P54764); test: Induction of stabilization of recombinant EPHA4 (unknown origin) assessed as change in melting temperature by differential scanning fluorimetry assay
# Sequence of Ephrin type-A receptor 4 (P54764 whole entry): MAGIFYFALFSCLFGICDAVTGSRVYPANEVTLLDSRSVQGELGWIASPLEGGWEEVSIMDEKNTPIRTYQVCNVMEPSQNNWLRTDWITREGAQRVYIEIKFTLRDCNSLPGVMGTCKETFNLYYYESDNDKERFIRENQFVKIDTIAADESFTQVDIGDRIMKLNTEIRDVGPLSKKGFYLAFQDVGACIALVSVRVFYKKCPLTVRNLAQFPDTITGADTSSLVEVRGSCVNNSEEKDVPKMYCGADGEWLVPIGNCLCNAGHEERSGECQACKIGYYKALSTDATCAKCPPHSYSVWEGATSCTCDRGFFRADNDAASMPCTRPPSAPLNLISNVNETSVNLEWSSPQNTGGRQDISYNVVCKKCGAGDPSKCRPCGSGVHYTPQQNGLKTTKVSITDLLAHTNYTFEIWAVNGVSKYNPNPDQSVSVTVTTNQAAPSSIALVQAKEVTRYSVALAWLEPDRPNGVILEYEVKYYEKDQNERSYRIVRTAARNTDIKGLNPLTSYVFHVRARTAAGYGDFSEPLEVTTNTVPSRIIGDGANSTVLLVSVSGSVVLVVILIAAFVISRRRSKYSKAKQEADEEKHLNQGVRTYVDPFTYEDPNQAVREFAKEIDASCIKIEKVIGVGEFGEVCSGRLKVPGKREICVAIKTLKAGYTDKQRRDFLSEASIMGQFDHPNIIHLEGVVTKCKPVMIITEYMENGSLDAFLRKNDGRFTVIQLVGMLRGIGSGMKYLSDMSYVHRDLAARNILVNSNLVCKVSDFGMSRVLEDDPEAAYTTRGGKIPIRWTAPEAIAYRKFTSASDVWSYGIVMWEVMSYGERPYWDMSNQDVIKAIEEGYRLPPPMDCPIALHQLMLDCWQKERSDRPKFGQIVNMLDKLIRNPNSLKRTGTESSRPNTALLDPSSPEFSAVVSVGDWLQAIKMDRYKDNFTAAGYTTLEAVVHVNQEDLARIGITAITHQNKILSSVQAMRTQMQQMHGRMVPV
# [7] = biological target: Vascular endothelial growth factor receptor 1 (Homo sapiens, UniProt P17948); test: Induction of stabilization of recombinant FLT1 (unknown origin) assessed as change in melting temperature by differential scanning fluorimetry assay
# Sequence of Vascular endothelial growth factor receptor 1 (P17948 whole entry): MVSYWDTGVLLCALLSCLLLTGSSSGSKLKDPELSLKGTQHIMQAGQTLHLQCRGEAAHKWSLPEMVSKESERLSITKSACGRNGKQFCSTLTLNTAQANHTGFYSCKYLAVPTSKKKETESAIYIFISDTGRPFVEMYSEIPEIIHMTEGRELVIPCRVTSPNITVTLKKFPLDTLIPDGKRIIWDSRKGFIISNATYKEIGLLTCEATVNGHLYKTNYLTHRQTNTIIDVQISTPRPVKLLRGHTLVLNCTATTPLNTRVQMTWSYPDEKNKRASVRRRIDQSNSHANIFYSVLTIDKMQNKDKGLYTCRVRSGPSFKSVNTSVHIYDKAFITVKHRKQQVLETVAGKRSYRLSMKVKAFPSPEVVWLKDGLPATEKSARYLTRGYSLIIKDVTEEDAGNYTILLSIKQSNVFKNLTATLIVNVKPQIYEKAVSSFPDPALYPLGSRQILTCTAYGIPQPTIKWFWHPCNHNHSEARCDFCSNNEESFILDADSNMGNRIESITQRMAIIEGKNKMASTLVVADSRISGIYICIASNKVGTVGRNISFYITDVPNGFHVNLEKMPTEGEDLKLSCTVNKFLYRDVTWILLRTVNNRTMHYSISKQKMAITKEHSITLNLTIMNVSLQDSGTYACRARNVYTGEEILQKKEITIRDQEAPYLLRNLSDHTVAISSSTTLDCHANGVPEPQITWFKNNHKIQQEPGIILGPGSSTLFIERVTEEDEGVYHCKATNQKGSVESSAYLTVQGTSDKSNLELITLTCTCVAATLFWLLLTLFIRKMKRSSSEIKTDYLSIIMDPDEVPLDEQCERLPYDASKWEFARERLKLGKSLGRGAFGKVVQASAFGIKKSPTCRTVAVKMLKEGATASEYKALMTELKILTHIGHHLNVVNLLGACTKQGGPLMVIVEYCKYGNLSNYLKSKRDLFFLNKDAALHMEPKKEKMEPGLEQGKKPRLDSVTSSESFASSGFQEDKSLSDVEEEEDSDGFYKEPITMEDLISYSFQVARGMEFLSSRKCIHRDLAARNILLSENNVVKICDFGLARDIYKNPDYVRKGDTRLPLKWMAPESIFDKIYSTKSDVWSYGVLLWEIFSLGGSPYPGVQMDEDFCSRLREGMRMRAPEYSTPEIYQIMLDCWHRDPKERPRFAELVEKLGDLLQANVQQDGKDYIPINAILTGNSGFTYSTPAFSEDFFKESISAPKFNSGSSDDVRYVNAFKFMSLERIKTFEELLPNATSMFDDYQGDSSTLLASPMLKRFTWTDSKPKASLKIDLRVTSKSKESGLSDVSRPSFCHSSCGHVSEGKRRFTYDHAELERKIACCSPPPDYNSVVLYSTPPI
# [8] = biological target: Ephrin type-A receptor 7 (Homo sapiens) (UniProt Q15375); test: Induction of stabilization of recombinant EPHA7 (unknown origin) assessed as change in melting temperature by differential scanning fluorimetry assay
# Sequence of Ephrin type-A receptor 7 (Homo sapiens) (Q15375 28-998 limits assumed): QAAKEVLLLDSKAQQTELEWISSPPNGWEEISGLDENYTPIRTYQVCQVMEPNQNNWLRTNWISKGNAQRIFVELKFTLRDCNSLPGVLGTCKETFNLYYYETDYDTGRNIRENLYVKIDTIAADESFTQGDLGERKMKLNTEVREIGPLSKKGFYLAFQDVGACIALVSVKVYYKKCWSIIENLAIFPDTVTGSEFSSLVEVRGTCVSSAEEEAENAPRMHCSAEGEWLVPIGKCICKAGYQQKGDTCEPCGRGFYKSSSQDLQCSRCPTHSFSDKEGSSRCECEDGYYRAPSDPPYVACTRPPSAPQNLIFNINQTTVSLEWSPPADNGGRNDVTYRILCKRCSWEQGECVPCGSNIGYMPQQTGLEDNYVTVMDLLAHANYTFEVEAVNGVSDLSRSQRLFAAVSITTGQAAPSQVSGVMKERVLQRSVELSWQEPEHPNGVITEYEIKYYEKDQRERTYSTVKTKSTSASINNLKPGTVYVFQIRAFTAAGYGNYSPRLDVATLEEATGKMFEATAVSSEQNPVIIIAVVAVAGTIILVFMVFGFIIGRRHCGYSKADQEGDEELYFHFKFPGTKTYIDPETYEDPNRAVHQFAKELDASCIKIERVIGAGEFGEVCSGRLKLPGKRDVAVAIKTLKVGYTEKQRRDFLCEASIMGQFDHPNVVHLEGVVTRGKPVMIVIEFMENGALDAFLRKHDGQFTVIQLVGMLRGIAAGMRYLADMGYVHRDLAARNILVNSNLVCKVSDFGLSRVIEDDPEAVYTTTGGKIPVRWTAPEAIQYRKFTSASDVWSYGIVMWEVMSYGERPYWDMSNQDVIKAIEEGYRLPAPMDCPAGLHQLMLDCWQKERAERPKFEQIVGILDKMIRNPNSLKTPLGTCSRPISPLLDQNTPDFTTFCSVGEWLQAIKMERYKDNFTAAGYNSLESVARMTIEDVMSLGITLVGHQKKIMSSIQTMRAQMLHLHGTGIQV
structure (smiles),measurement,setting,value
Nc1cc(-c2cnc3nc2NCCCNS(=O)(=O)c2cccc(c2)N3)ccc1F,deltaTm,[1],2.2 K
same,deltaTm,[2],1.7 K
same,deltaTm,[3],6 K
same,deltaTm,[4],4.6 K
same,deltaTm,Ephrin type-A receptor 2,7.7 K
same,deltaTm,[5],4.6 K
same,deltaTm,[6],3.6 K
same,deltaTm,Ephrin type-A receptor 4,4.4 K
same,deltaTm,[7],4.9 K
same,deltaTm,[8],0.2 K
COc1cc(-c2cnc3nc2NCCCNS(=O)(=O)c2cccc(c2)N3)cc(OC)c1OC,deltaTm,[1],0.8 K
same,deltaTm,[2],2.4 K
same,deltaTm,[3],5.9 K
same,deltaTm,[4],1.2 K
same,deltaTm,Ephrin type-A receptor 2,6 K
same,deltaTm,[5],2.9 K
same,deltaTm,[6],2.2 K
same,deltaTm,Ephrin type-A receptor 4,2.2 K
same,deltaTm,[7],0.7 K
same,deltaTm,[8],-0.3 K
COc1cc(-c2cnc3nc2NCCCNS(=O)(=O)c2cccc(c2)N3)ccc1C#N,deltaTm,[1],0 K
same,deltaTm,[2],3.1 K
same,deltaTm,[3],8.9 K
same,deltaTm,[4],1.7 K
same,deltaTm,Ephrin type-A receptor 2,8.6 K
same,deltaTm,[5],6.2 K
same,deltaTm,[6],5.2 K
same,deltaTm,Ephrin type-A receptor 4,5.2 K
same,deltaTm,[7],1.1 K
same,deltaTm,[8],0 K
COc1ccc(-c2cnc3nc2NCCCNS(=O)(=O)c2cccc(c2)N3)cc1OC,deltaTm,[1],2.3 K
same,deltaTm,[2],1.4 K
same,deltaTm,[3],6.1 K
same,deltaTm,[4],3.3 K
same,deltaTm,Ephrin type-A receptor 2,4.6 K
same,deltaTm,[5],2.1 K
same,deltaTm,[6],0.6 K
same,deltaTm,Ephrin type-A receptor 4,1.4 K
same,deltaTm,[7],4.1 K
same,deltaTm,[8],0.8 K
CC(C)Oc1cc(-c2cnc3nc2NCCCNS(=O)(=O)c2cccc(c2)N3)ccc1F,deltaTm,[1],1 K
same,deltaTm,[2],3.4 K
same,deltaTm,[3],1.6 K
same,deltaTm,[4],1.5 K
same,deltaTm,Ephrin type-A receptor 2,0.7 K
same,deltaTm,[5],0.2 K
same,deltaTm,[6],0 K
same,deltaTm,Ephrin type-A receptor 4,0.7 K
same,deltaTm,[7],2.1 K
same,deltaTm,[8],0.6 K
O=S1(=O)NCCCNc2nc(ncc2-c2ccc(F)c(O)c2)Nc2cccc1c2,deltaTm,[1],4.9 K
same,deltaTm,[2],3 K
same,deltaTm,[3],6.4 K
same,deltaTm,[4],6.5 K
same,deltaTm,Ephrin type-A receptor 2,7.8 K
same,deltaTm,[5],4.1 K
same,deltaTm,[6],4 K
same,deltaTm,Ephrin type-A receptor 4,2.9 K
same,deltaTm,[7],10.7 K
same,deltaTm,[8],-2 K
COC(=O)COc1ccc2cc1S(=O)(=O)NCCCNc1nc(ncc1-c1ccc(F)c(OC)c1)N2,deltaTm,[1],0.5 K
same,deltaTm,[2],1.4 K
same,deltaTm,[3],3.7 K
same,deltaTm,[4],1.3 K
same,deltaTm,Ephrin type-A receptor 2,2.4 K
same,deltaTm,[5],2.3 K
same,deltaTm,[6],1 K
same,deltaTm,Ephrin type-A receptor 4,1.6 K
same,deltaTm,[7],0.3 K
same,deltaTm,[8],0.4 K
COC(=O)c1ccc(-c2cnc3nc2NCCCNS(=O)(=O)c2cccc(c2)N3)cc1OC,deltaTm,[1],0.6 K
same,deltaTm,[2],1.3 K
same,deltaTm,[3],3.1 K
same,deltaTm,[4],1.8 K
same,deltaTm,Ephrin type-A receptor 2,2.9 K
same,deltaTm,[5],1.8 K
same,deltaTm,[6],1.1 K
same,deltaTm,Ephrin type-A receptor 4,1.3 K
same,deltaTm,[7],2.6 K
same,deltaTm,[8],0.1 K
O=S1(=O)NCCCNc2nc(ncc2-c2cc(Cl)c(F)cc2F)Nc2cccc1c2,deltaTm,[1],3.1 K
same,deltaTm,[2],4.3 K
same,deltaTm,[3],5.8 K
same,deltaTm,[4],4.7 K
same,deltaTm,Ephrin type-A receptor 2,7.5 K
same,deltaTm,[5],5.7 K
same,deltaTm,[6],3.3 K
same,deltaTm,Ephrin type-A receptor 4,3.2 K
same,deltaTm,[7],4.3 K
same,deltaTm,[8],0.1 K
O=S1(=O)NCCCNc2nc(ncc2-c2ccc(F)c(Cl)c2)Nc2cccc1c2,deltaTm,[1],3.8 K
same,deltaTm,[2],4.3 K
same,deltaTm,[3],6.3 K
same,deltaTm,[4],5.5 K
same,deltaTm,Ephrin type-A receptor 2,9.2 K
same,deltaTm,[5],5.7 K
same,deltaTm,[6],5.3 K
same,deltaTm,Ephrin type-A receptor 4,4.6 K
same,deltaTm,[7],7.5 K
same,deltaTm,[8],-1.5 K
Cc1cc(Cl)c(Cl)cc1-c1cnc2nc1NCCCNS(=O)(=O)c1cccc(c1)N2,deltaTm,[1],2.4 K
same,deltaTm,[2],0 K
same,deltaTm,[3],4.9 K
same,deltaTm,[4],3.6 K
same,deltaTm,Ephrin type-A receptor 2,6.2 K
same,deltaTm,[5],3.5 K
same,deltaTm,[6],3.2 K
same,deltaTm,Ephrin type-A receptor 4,2.6 K
same,deltaTm,[7],2.7 K
same,deltaTm,[8],0.5 K
COc1cc(-c2cnc3nc2NCCCNS(=O)(=O)c2cccc(c2)N3)cc(F)c1F,deltaTm,[1],2.2 K
same,deltaTm,[2],2.3 K
same,deltaTm,[3],4.1 K
same,deltaTm,[4],2.9 K
same,deltaTm,Ephrin type-A receptor 2,5 K
same,deltaTm,[5],1.9 K
same,deltaTm,[6],2.7 K
same,deltaTm,Ephrin type-A receptor 4,1.2 K
same,deltaTm,[7],3 K
same,deltaTm,[8],-3.3 K
